Tested on: KB tumors
Test: In vivo antitumor experiments, s.c. KB tumors in nu/nu mice
Conditions: i.v., EC145 1 μmol/kg/injection TIW 2 weeks
Experimental: Four to six week-old female nu/nu mice (Charles River, Wilmington, Mass.) or six to seven week-old female Balb/c mice (Harlan Sprague Dawley, Inc., Indianapolis, Ind.) were maintained on a standard 12 h light-dark cycle and fed ad libitum with folate-deficient chow (Harlan diet #TD00434, Harlan Teklad, Madison, Wis.) for the duration of the experiment. FR-positive human nasopharyngeal KB cells and human ovarian IGROV cells were grown continuously as a monolayer, using folate-free RPMI medium (FFRPMI) containing 10% heat-inactivated fetal calf serum (HIFCS) at 37° C. in a 5% CO2/95% air-humidified atmosphere with no antibiotics. Syngeneic FR-positive Madison 109 (M109) lung carcinoma cells were generated from M109 tumors and cultured for a few days in FFRPMI containing 10% HIFCS for a few days before implantation in mice. KB cells (1×10^6 per nu/nu mouse), M109 cells (1×10^6 per Balb/c mouse), IGROV cells (4×10^6 per nu/nu mouse) in 100 μL were injected in the subcutis of the dorsal medial area. Mice were divided into groups of five, and test articles were freshly prepared and injected through the lateral tail vein under sterile conditions in a volume of 200 μL of phosphate-buffered saline (PBS). […] The mice in the control groups received no treatment. Growth of each s.c. tumor was followed by measuring the tumor three times per week during treatment and twice per week thereafter until a volume of 1500 mm^3 was reached. Tumors were measured in two perpendicular directions using Vernier calipers, and their volumes were calculated as 0.5×L×W^2, where L=measurement of longest axis in mm and W=measurement of axis perpendicular to L in mm. As a general measure of toxicity, changes in body weights were determined on the same schedule as tumor volume measurements. Survival of animals was monitored daily. Animals that were moribund (or unable to reach food or water) were euthanized by CO2 asphyxiation. All in vivo studies were performed in accordance with the American Accreditation Association of Laboratory Animal Care guidelines.
For individual tumors, a partial response (PR) was defined as volume regression>50% but with measurable tumor (>2 mm^3) remaining at all times. Complete response (CR) was defined as a disappearance of measurable tumor mass (<2 mm^3) at some point until the end of the study. Cures were defined as CR's without tumor re-growth within the study time frame.
See FIG. 1 for tumor response and FIG. 2 for weight change during the treatment period.
See FIG. 3 for tumor response and FIG. 4 for weight change during the treatment period.
See FIG. 5 for tumor response and FIG. 6 for weight change during the treatment period.

[1] = KB tumors 144-212 mm^3, five animals per group, Docetaxel 10 mg/kg TIW 1 week (FIG. 1)
[2] = KB tumors 111-173 mm^3, five animals per group, Paclitaxel 20 mg/kg TIW in Cremophor/ethanol 1 week (FIG. 5)

Row | Compound | Cures [1] | complete responses [1] | partial responses [1] | Cures [2] | complete responses [2]
1 | CC(=O)O[C@@]12CO[C@@H]1C[C@H](O)[C@@]1(C)C(=O)[C@H](O)C3=C(C)[C@@H](OC(=O)[C@H](O)[C@@H](NC(=O)OC(C)(C)C)c4ccccc4)C[C@@](O)([C@@H](OC(=O)c4ccccc4)[C@H]21)C3(C)C [Docetaxel, docetaxel] | no | no | no |  | 
2 | CC(=O)O[C@H]1C(=O)[C@@]2(C)[C@H]([C@H](OC(=O)c3ccccc3)[C@]3(O)C[C@H](OC(=O)[C@H](O)[C@@H](NC(=O)c4ccccc4)c4ccccc4)C(C)=C1C3(C)C)[C@]1(OC(C)=O)CO[C@@H]1C[C@@H]2O [Paclitaxel, paclitaxel] |  |  |  | 3 | 2

From patent publication US8987281B2, “Methods of treating cancer” (Endocyte, Inc., priority 2010, dated 2015)
